According to patent US7645764B2, “Kinase inhibitors and methods for using the same” (Roche Palo Alto LLC, priority 2006, dated 2010):
One block for each compound: values may come before it.

Key:
cloned human c-Raf = biological target: T1, cloned human c-Raf (Homo sapiens, UniProt P04049); test: c-Raf HTRF assay with 6H-MEK as substrate (dose response); type: biochemical; conditions: 6H-MEK substrate
T1 construct: made in house; host or cells: High-5 (Hi5) insect cells, baculovirus, co-infected with FLAG-vSrc
T1 sequence (P04049 whole entry): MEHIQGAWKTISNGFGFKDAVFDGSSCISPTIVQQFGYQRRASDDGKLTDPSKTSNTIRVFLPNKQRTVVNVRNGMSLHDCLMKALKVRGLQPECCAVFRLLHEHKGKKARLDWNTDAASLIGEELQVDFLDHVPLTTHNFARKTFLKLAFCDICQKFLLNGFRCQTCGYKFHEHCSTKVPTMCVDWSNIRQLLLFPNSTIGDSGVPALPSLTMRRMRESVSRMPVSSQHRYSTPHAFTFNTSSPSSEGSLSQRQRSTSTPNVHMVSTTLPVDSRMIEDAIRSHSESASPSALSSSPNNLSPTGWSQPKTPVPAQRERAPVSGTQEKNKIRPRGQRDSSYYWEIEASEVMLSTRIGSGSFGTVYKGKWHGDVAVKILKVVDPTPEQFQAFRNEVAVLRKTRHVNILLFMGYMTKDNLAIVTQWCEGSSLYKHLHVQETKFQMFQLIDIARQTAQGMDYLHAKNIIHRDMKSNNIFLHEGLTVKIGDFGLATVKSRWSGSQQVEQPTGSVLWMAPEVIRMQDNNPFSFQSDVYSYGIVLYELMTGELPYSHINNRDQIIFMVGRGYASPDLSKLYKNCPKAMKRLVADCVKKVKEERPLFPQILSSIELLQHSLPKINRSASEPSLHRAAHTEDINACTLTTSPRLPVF
Method: c-Raf HTRF Assay with 6H-MEK as Substrate (Dose Response)
This assay utilizes 6H-MEK as the substrate. Upon c-Raf phosphorylation, phosphorylated 6H-MEK is detected with rabbit anti-phospho-MEK1/2, Eu-labeled anti-rabbit, and APC-labeled anti-6H antibodies.
(§1) Procedure • (1) Prepare Kinase Assay Buffer (KAB): 50 mM HEPES (HyClone) pH7, 10 mM MgCl2, 1 mM DTT, 0.1 mM […], and 0.3 mg/ml BSA. • (2) Prepare 6H-MEK (150 nM) in KAB. Add 12 μl/well to the assay plate. • (3) Prepare ATP (66 μM) in KAB. • (4) Dilute compounds to 2.4 mM and any positive controls to 480 μM in DMSO. Perform 10-point 3× dilution in DMSO. […] For the cross talk factor sample, add 6 μl/well of Eu-anti rabbit IgG (9 nM). • (14) Incubate at room temperature for 1.5 hours. • (15) Read HTRF signals at 615 nm and 665 nm on the Envision. […]
N terminal EE-tagged c-Raf was expressed in High-5 cells. […] Protein concentration was determined by the BioRad DC method.

[1] = biological target: T2, recombinant human b-Raf residues 416-end (wild type) (Homo sapiens, UniProt P15056); test: b-Raf wild-type HTRF assay with 6H-MEK as substrate (dose response); type: biochemical; conditions: 6H-MEK substrate
T2 construct: recombinant human b-Raf residues 416-end with N-terminal GST-tag; purchased Upstate 14-530M; host or cells: baculovirus in Sf21 insect cells
T2 sequence (P15056 416-766 limits assumed): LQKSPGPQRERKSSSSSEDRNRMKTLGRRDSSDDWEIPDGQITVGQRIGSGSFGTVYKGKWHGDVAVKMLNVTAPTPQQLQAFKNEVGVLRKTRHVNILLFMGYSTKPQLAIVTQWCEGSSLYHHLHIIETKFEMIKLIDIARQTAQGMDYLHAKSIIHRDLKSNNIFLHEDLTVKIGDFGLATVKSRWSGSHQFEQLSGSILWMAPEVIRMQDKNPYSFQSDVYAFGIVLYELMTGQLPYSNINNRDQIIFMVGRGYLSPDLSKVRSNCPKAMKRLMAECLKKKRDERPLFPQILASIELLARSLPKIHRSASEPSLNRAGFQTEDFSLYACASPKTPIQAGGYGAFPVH
Method: b-Raf Wild-Type HTRF Assay with 6H-MEK as Substrate (Dose Response)
This assay utilizes 6H-MEK as the substrate. Upon b-Raf WT phosphorylation, phosphorylated 6H-MEK is detected with rabbit anti-phospho-MEK1/2, Eu-labeled anti-rabbit, and APC-labeled anti-6H antibodies.
as §1, with “Assay Procedure:” for “Procedure”

[2] = biological target: T3, recombinant human b-Raf residues 416-end containing a V600E mutation (Homo sapiens, UniProt P15056, V600E); test: b-Raf V600E mutant HTRF assay with 6H-MEK as substrate (dose response); type: biochemical; conditions: 6H-MEK substrate
T3 construct: recombinant human b-Raf residues 416-end containing a V600E mutation; purchased Upstate 14-5M; host or cells: baculovirus in Sf21 insect cells
T3 sequence (P15056 416-766 V600E): as the sequence (P15056 416-766 limits assumed) above, with V185E counted along it
Method: b-Raf V600E Mutant HTRF Assay with 6H-MEK as Substrate (Dose Response)
This assay utilizes 6H-MEK as the substrate. Upon b-Raf V600E phosphorylation, phosphorylated 6H-MEK is detected with rabbit anti-phospho-MEK1/2, Eu-labeled anti-rabbit, and APC-labeled anti-6H antibodies.
as §1, with “Assay Procedure:” for “Procedure”, “and” for “and any”

p38 MAP kinase = biological target: T4, p38 MAP kinase (Homo sapiens, UniProt Q16539); test: p38 MAP kinase in vitro assay (33P-ATP phosphate transfer to Myelin Basic Protein); type: biochemical
T4 construct: made in house; host or cells: E. coli (co-expressed with SEK-1 and MEKK)
T4 sequence (Q16539 whole entry): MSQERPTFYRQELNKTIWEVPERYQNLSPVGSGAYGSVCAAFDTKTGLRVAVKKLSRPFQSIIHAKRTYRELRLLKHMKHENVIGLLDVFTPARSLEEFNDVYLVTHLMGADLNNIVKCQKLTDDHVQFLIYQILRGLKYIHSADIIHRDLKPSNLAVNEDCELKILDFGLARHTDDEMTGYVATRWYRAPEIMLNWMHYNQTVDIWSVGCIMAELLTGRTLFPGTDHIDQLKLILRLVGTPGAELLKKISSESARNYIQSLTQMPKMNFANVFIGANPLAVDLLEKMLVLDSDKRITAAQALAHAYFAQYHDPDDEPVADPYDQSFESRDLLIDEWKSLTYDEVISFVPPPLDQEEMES
Method: This example illustrates a p38 (MAP) kinase in vitro assay useful for evaluating the compounds of the invention.
The p38 MAP kinase inhibitory activity of compounds of this invention in vitro was determined by measuring the transfer of the γ-phosphate from γ-^33P-ATP by p-38 kinase to Myelin Basic Protein (MBP), using a minor modification of the method described in Ahn, et al., J. Biol. Chem. 266:4220-4227 (1991).
The phosphorylated form of the recombinant p38 MAP kinase was co-expressed with SEK-1 and MEKK in E. Coli (see, Khokhlatchev, et al., J. Biol. Chem. 272:11057-11062 (1997)) and then purified by affinity chromatography using a Nickel column.
The phosphorylated p38 MAP kinase was diluted in kinase buffer (20 mM 3-(N-morpholino)propanesulfonic acid, pH 7.2, 25 mM β-glycerol phosphate, 5 mM ethylene glycol-bis(beta-aminoethyl ether)-N,N,N′,N′-tetraacetic acid, 1 mM sodium ortho-vanadate, 1 mM dithiothreitol, 40 mM magnesium chloride). Test compound dissolved in DMSO or only DMSO (control) was added and the samples were incubated for 10 min at 30° C. The kinase reaction was initiated by the addition of a substrate cocktail containing MBP and γ-^33P-ATP. […] The phosphorylated MBP was then separated from the residual γ-^33P-ATP using a phosphocellulose membrane (Millipore, Bedfrod, Mass.) and quantitated using a scintillation counter (Packard, Meriden, Conn.).

Compound: Cc1nnc(-c2ccc(C)c(-c3cc4cnc(NC5CCOCC5)nc4n(C)c3=O)c2)o1 [Compound 4, 8-Methyl-6-[2-methyl-5-(5-methyl-[1,3,4]oxadiazol-2-yl)-phenyl]-2-(tetrahydro-pyran-4-ylamino)-8H-pyrido[2,3-d]pyrimidin-7-one]
IC50 (cloned human c-Raf): ~190 nM

Compound: Cc1ccc(-c2nnc[nH]2)cc1-c1cc2cnc(NC3CCOCC3)nc2n(C)c1=O [Compound 11, 8-Methyl-6-[2-methyl-5-(4H-[1,2,4]triazol-3-yl)-phenyl]-2-(tetrahydro-pyran-4-ylamino)-8H-pyrido[2,3-d]pyrimidin-7-one]
melting point: 214.9 to 216 °C

Compound: Cc1ccc(-c2ncc[nH]2)cc1-c1cc2cnc(NC3CCOCC3)nc2n(C)c1=O [Compound 13, 6-[5-(1H-Imidazol-2-yl)-2-methyl-phenyl]-8-methyl-2-(tetrahydro-pyran-4-ylamino)-8H-pyrido[2,3-d]pyrimidin-7-one]
IC50 (p38 MAP kinase): ~0.66 nM

Results, then the compound that gave them:

melting point: 122.5 to 126.5 °C
Compound: COC(=O)c1ccc(C)c(-c2cc3cnc(NC4CCOCC4)nc3n(C)c2=O)c1 [Compound 1, 4-Methyl-3-[8-methyl-7-oxo-2-(tetrahydro-pyran-4-ylamino)-7,8-dihydro-pyrido[2,3-d]pyrimidin-6-yl]-benzoic acid methyl ester]

IC50 [1]: ~20 nM
IC50 [2]: ~10 nM
Compound: CNC(=O)c1ccc(C)c(-c2cc3cnc(NC4CCOCC4)nc3n(C)c2=O)c1 [Compound 8, 4,N-Dimethyl-3-[8-methyl-7-oxo-2-(tetrahydro-pyran-4-ylamino)-7,8-dihydro-pyrido[2,3-d]pyrimidin-6-yl]-benzamide]

melting point: 253.5 to 254.1 °C
Compound: Cc1ccc(C#N)cc1-c1cc2cnc(NC3CCOCC3)nc2n(C)c1=O [Compound 12, 4-Methyl-3-[8-methyl-7-oxo-2-(tetrahydro-pyran-4-ylamino)-7,8-dihydro-pyrido[2,3-d]pyrimidin-6-yl]-benzonitrile]
